Results: patent US10457703B2, “Bile acid derivatives as FXR/TGR5 agonists and methods of use thereof” (ENANTA PHARMACEUTICALS, INC., priority 2015, dated 2019)

Target: human FXR (NR1H4) (Homo sapiens (Human), UniProt Q96RI1)
Assay: Human FXR (NR1H4) Assay (Gal4 promoter driven luciferase reporter, Indigo Bioscience kit);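 as to Efficacy (%): 100% equals the efficacy of CDCA; efficacy normalized to CDCA set as 100%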
Assay type: cell-based
Details: for EC50: Human FXR (NR1H4) Assay, potency ranges; for Emax: read-out: Efficacy (%)
Procedure, shortened: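 CHO reporter cells expressing human FXR with an FXR-responsive luciferase reporter, treated with compound doses at 0.2% DMSO. Incubation lasted 22 h at 37 °C before luciferase detection reagent was added. Luminescence was then read.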

human FXR (NR1H4), sequence (Q96RI1 whole entry, the tested form may be a part): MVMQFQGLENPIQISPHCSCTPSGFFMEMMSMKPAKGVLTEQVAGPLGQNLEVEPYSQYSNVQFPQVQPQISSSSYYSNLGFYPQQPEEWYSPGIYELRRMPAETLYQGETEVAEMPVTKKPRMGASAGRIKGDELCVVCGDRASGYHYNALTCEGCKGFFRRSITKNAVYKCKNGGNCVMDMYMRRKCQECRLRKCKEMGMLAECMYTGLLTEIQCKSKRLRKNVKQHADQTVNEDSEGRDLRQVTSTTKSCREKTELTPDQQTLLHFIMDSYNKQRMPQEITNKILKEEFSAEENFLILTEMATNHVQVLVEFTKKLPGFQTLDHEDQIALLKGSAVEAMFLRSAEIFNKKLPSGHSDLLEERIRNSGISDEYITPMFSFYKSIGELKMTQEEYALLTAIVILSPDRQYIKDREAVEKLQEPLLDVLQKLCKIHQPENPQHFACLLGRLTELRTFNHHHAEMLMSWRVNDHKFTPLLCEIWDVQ

## CC[C@H]1[C@@H](O)[C@@H]2[C@H](CC[C@]3(C)[C@@H]([C@H](C)CCOC(=O)NS(=O)(=O)c4cccc(F)c4)CC[C@@H]23)[C@@]2(C)CC[C@@H](O)C[C@@H]12 [Example 66]
  EC50: 0.1 to 1 µM
  Emax: 320%

## CC[C@H]1[C@@H](O)[C@@H]2[C@H](CC[C@]3(C)[C@@H]([C@H](C)CCOC(=O)NS(=O)(=O)c4ccc(C(C)(C)C(=O)OC)cc4)CC[C@@H]23)[C@@]2(C)CC[C@@H](O)C[C@@H]12 [Example 55]
  EC50: < 0.1 µM
  Emax: 258%

## CC[C@H]1[C@@H](O)[C@@H]2[C@H](CC[C@]3(C)[C@@H]([C@H](C)CCOC(=O)N4CCC[C@H]4CO)CC[C@@H]23)[C@@]2(C)CC[C@@H](O)C[C@@H]12 [Example 210]
  EC50: < 0.1 µM
  Emax: 156%

## CC[C@H]1[C@@H](O)[C@@H]2[C@H](CC[C@]3(C)[C@@H]([C@H](C)CCOC(=O)NS(=O)(=O)CCc4cccc(Cl)c4)CC[C@@H]23)[C@@]2(C)CC[C@@H](O)C[C@@H]12 [Example 91]
  EC50: 0.1 to 1 µM
  Emax: 313%

## CC[C@H]1[C@@H](O)[C@@H]2[C@H](CC[C@]3(C)[C@@H]([C@H](C)COC(=O)NS(=O)(=O)c4ccc(-c5ncco5)nc4)CC[C@@H]23)[C@@]2(C)CC[C@@H](O)C[C@@H]12 [Example 44-o]
  EC50: 0.1 to 1 µM
  Emax: 292%

## CC[C@H]1[C@@H](O)[C@@H]2[C@H](CC[C@]3(C)[C@@H]([C@H](C)CCOC(=O)N4CCC(CO)CC4)CC[C@@H]23)[C@@]2(C)CC[C@@H](O)C[C@@H]12 [Example 202]
  EC50: 0.1 to 1 µM
  Emax: 393%

## CC[C@H]1[C@@H](O)[C@@H]2[C@H](CC[C@]3(C)[C@@H]([C@H](C)CCOC(=O)NS(=O)(=O)c4cnn(C)c4)CC[C@@H]23)[C@@]2(C)CC[C@@H](O)C[C@@H]12 [Example 82]
  EC50: 1 to 10 µM
  Emax: 294%

## CC[C@H]1[C@@H](O)[C@@H]2[C@H](CC[C@]3(C)[C@@H]([C@H](C)CCOC(=O)N4CCC[C@@H](CO)C4)CC[C@@H]23)[C@@]2(C)CC[C@@H](O)C[C@@H]12 [Example 204]
  EC50: < 0.1 µM
  Emax: 310%

## CC[C@H]1[C@@H](O)[C@@H]2[C@H](CC[C@]3(C)[C@@H]([C@H](C)CCOC(=O)NS(=O)(=O)c4cnccn4)CC[C@@H]23)[C@@]2(C)CC[C@@H](O)C[C@@H]12 [Example 99]
  EC50: 1 to 10 µM
  Emax: 51%

## CC[C@H]1[C@@H](O)[C@@H]2[C@H](CC[C@]3(C)[C@@H]([C@H](C)CCOC(=O)NC(C)(C)C)CC[C@@H]23)[C@@]2(C)CC[C@@H](O)C[C@@H]12 [Example 192]
  EC50: 1 to 10 µM
  Emax: 186%

## CCC(CC)S(=O)(=O)NC(=O)OCC[C@@H](C)[C@H]1CC[C@H]2[C@@H]3[C@H](O)[C@H](CC)[C@@H]4C[C@H](O)CC[C@]4(C)[C@H]3CC[C@]12C [Example 96]
  EC50: < 0.1 µM
  Emax: 388%

## CC[C@H]1[C@@H](O)[C@@H]2[C@H](CC[C@]3(C)[C@@H]([C@H](C)CCOC(=O)N4CCC[C@H](CO)C4)CC[C@@H]23)[C@@]2(C)CC[C@@H](O)C[C@@H]12 [Example 203]
  EC50: 0.1 to 1 µM
  Emax: 380%

## CC[C@H]1[C@@H](O)[C@@H]2[C@H](CC[C@]3(C)[C@@H]([C@H](C)CCOC(=O)N4CC[C@H](O)C4)CC[C@@H]23)[C@@]2(C)CC[C@@H](O)C[C@@H]12 [Example 181]
  EC50: < 0.1 µM
  Emax: 382%

## CC[C@H]1[C@@H](O)[C@@H]2[C@H](CC[C@]3(C)[C@@H]([C@H](C)CCOC(=O)N4CCCS4(=O)=O)CC[C@@H]23)[C@@]2(C)CC[C@@H](O)C[C@@H]12 [Example 74]
  EC50: 0.1 to 1 µM
  Emax: 358%

## CC[C@H]1[C@@H](O)[C@@H]2[C@H](CC[C@]3(C)[C@@H]([C@H](C)CCOC(=O)NCCN4CCOCC4)CC[C@@H]23)[C@@]2(C)CC[C@@H](O)C[C@@H]12 [Example 151]
  EC50: 0.1 to 1 µM
  Emax: 253%

## CC[C@H]1[C@@H](O)[C@@H]2[C@H](CC[C@]3(C)[C@@H]([C@H](C)CCOC(=O)N4CCN(c5ccccc5OC)CC4)CC[C@@H]23)[C@@]2(C)CC[C@@H](O)C[C@@H]12 [Example 170]
  EC50: < 0.1 µM
  Emax: 283%

## CC[C@H]1[C@@H](O)[C@@H]2[C@H](CC[C@]3(C)[C@@H]([C@H](C)CCOC(=O)NS(=O)(=O)CCC(=O)OC)CC[C@@H]23)[C@@]2(C)CC[C@@H](O)C[C@@H]12 [Example 92]
  EC50: 1 to 10 µM
  Emax: 218%

## CC[C@H]1[C@@H](O)[C@@H]2[C@H](CC[C@]3(C)[C@@H]([C@H](C)COC(=O)NS(=O)(=O)c4ccc(-n5cccn5)cc4)CC[C@@H]23)[C@@]2(C)CC[C@@H](O)C[C@@H]12 [Example 37]
  EC50: < 0.1 µM
  Emax: 207%

## CC[C@H]1[C@@H](O)[C@@H]2[C@H](CC[C@]3(C)[C@@H]([C@H](C)CCOC(=O)N4CCC4)CC[C@@H]23)[C@@]2(C)CC[C@@H](O)C[C@@H]12 [Example 162]
  EC50: 0.1 to 1 µM
  Emax: 277%

## CC[C@H]1[C@@H](O)[C@@H]2[C@H](CC[C@]3(C)[C@@H]([C@H](C)CCOC(=O)NS(=O)(=O)c4ccc(C(C)(C)CO)cc4)CC[C@@H]23)[C@@]2(C)CC[C@@H](O)C[C@@H]12 [Example 70]
  EC50: < 0.1 µM
  Emax: 333%

## CC[C@H]1[C@@H](O)[C@@H]2[C@H](CC[C@]3(C)[C@@H]([C@H](C)CCOC(=O)N4CCC(C)(CO)CC4)CC[C@@H]23)[C@@]2(C)CC[C@@H](O)C[C@@H]12 [Example 213]
  EC50: < 0.1 µM
  Emax: 460%

## CC[C@H]1[C@@H](O)[C@@H]2[C@H](CC[C@]3(C)[C@@H]([C@H](C)CCOC(=O)NS(=O)(=O)c4ccc(OC)c(OC)c4)CC[C@@H]23)[C@@]2(C)CC[C@@H](O)C[C@@H]12 [Example 87]
  EC50: 0.1 to 1 µM
  Emax: 274%

## CC[C@H]1[C@@H](O)[C@@H]2[C@H](CC[C@]3(C)[C@@H]([C@H](C)CCOC(=O)N4CCC(N5CCCCC5)CC4)CC[C@@H]23)[C@@]2(C)CC[C@@H](O)C[C@@H]12 [Example 178]
  EC50: 0.1 to 1 µM
  Emax: 196%

## CC[C@H]1[C@@H](O)[C@@H]2[C@H](CC[C@]3(C)[C@@H]([C@H](C)CCOC(=O)NS(=O)(=O)C4CCC4)CC[C@@H]23)[C@@]2(C)CC[C@@H](O)C[C@@H]12 [Example 104-i]
  EC50: < 0.1 µM
  Emax: 314%

## CC[C@H]1[C@@H](O)[C@@H]2[C@H](CC[C@]3(C)[C@@H]([C@H](C)CCOC(=O)NS(=O)(=O)c4ccc(OC(C)C)cc4)CC[C@@H]23)[C@@]2(C)CC[C@@H](O)C[C@@H]12 [Example 100]
  EC50: < 0.1 µM
  Emax: 316%

## CC[C@H]1[C@@H](O)[C@@H]2[C@H](CC[C@]3(C)[C@@H]([C@H](C)CCOC(=O)NS(=O)(=O)c4ccc(OC)cc4)CC[C@@H]23)[C@@]2(C)CC[C@@H](O)C[C@@H]12 [Example 52]
  EC50: < 0.1 µM
  Emax: 226%

## CC[C@H]1[C@@H](O)[C@@H]2[C@H](CC[C@]3(C)[C@@H]([C@H](C)COC(=O)NS(=O)(=O)c4ccc(OC(F)(F)F)cc4)CC[C@@H]23)[C@@]2(C)CC[C@@H](O)C[C@@H]12 [Example 6]
  EC50: 0.1 to 1 µM
  Emax: 298%

## CC[C@H]1[C@@H](O)[C@@H]2[C@H](CC[C@]3(C)[C@@H]([C@H](C)CCOC(=O)N(CC)CC)CC[C@@H]23)[C@@]2(C)CC[C@@H](O)C[C@@H]12 [Example 163]
  EC50: 0.1 to 1 µM
  Emax: 266%

## CC[C@H]1[C@@H](O)[C@@H]2[C@H](CC[C@]3(C)[C@@H]([C@H](C)COC(=O)NS(=O)(=O)c4ccc(N5CCCC5)nc4)CC[C@@H]23)[C@@]2(C)CC[C@@H](O)C[C@@H]12 [Example 44-b]
  EC50: < 0.1 µM
  Emax: 216%

## CC[C@H]1[C@@H](O)[C@@H]2[C@H](CC[C@]3(C)[C@@H]([C@H](C)COC(=O)NS(=O)(=O)c4cnc5ccccc5c4)CC[C@@H]23)[C@@]2(C)CC[C@@H](O)C[C@@H]12 [Example 24]
  EC50: < 0.1 µM
  Emax: 193%

## CC[C@H]1[C@@H](O)[C@@H]2[C@H](CC[C@]3(C)[C@@H]([C@H](C)CCOC(=O)NS(=O)(=O)c4ccc5c(c4)CCC5)CC[C@@H]23)[C@@]2(C)CC[C@@H](O)C[C@@H]12 [Example 67]
  EC50: < 0.1 µM
  Emax: 290%

## CC[C@H]1[C@@H](O)[C@@H]2[C@H](CC[C@]3(C)[C@@H]([C@H](C)COC(=O)NS(=O)(=O)c4ccc(-c5ccccc5)cc4)CC[C@@H]23)[C@@]2(C)CC[C@@H](O)C[C@@H]12 [Example 32]
  EC50: < 0.1 µM
  Emax: 164%

## CC[C@H]1[C@@H](O)[C@@H]2[C@H](CC[C@]3(C)[C@@H]([C@H](C)CCCOC(=O)NC4CCCCC4)CC[C@@H]23)[C@@]2(C)CC[C@@H](O)C[C@@H]12 [Example 126]
  EC50: 1 to 10 µM
  Emax: 187%

## CC[C@H]1[C@@H](O)[C@@H]2[C@H](CC[C@]3(C)[C@@H]([C@H](C)COC(=O)NS(=O)(=O)c4ccc(-c5ccccc5)s4)CC[C@@H]23)[C@@]2(C)CC[C@@H](O)C[C@@H]12 [Example 10]
  EC50: < 0.1 µM
  Emax: 259%

## CC[C@H]1[C@@H](O)[C@@H]2[C@H](CC[C@]3(C)[C@@H]([C@H](C)COC(=O)NS(=O)(=O)c4ccc(N5CCOCC5)cc4)CC[C@@H]23)[C@@]2(C)CC[C@@H](O)C[C@@H]12 [Example 19]
  EC50: < 0.1 µM
  Emax: 219%

## CC[C@H]1[C@@H](O)[C@@H]2[C@H](CC[C@]3(C)[C@@H]([C@H](C)CCOC(=O)NS(=O)(=O)Cc4ccccc4)CC[C@@H]23)[C@@]2(C)CC[C@@H](O)C[C@@H]12 [Example 56]
  EC50: < 0.1 µM
  Emax: 326%
